For test [1], the system named is monoclonal self-activation stable lines (42ZFR2AR39AR67A DNA-binding domain). Put plainly: Inhibition of self-activation by competitive dimerization. The class given is cell-based, Chinese hamster. To be noted: 100 nM AP1903 and 10 μM TMP. The text has this:
To test this, monoclonal cell lines with the self-activating circuits were selected, and then constructs expressing proteins were stably integrated with a different ZF DNA-binding domain and a matching or mismatching dimerization domain to generate a polyclonal cell population for each perturbation construct (Table 2 and Table 3) (See, “Additional Methods” below). […] Without being bound by any particular theory, this may be through non-specific mechanisms (FIG. 2D and FIG. 10B-FIG. 10C).
All tissue culture experiments were performed with Chinese hamster ovary K1 cells (CHO-K1, ATCC). […] Cells were harvested after 36 hours and cell fluorescence was measured by flow cytometry. […] After another 72 hours, cells were harvested and analyzed by flow cytometry. […] The inhibition strength was quantified as the reduction of self-activation cell fractions.
To determine whether competitive dimerization inhibits self-activation (FIG. 2D and FIG. 10B-FIG. 10C), plasmids (Table 2, construct MF72-MF80) expressing different transcription factor variants and a co-translational mCherry were stably integrated in these two monoclonal lines. After puromycin selection, cells were transferred into media containing 100 nM AP1903+10 μM TMP to permit self-activation, and measured by flow cytometry after another 72 hours. […]

Test [2] concerns the target T1, homodimerization domain (Homo sapiens, UniProt P62942, F37V).
T1 construct: expressed in transfected cells; host or cells: CHO-K1
Put plainly: Dissociation constant of homodimerization domains (parameter estimate). The class given is binding. The conditions noted are these: media containing 100 nM AP1903; reasoned from reporter activation versus GCN4; read-out: apparent dissociation constant Kd of homodimerization. On the procedure: Finally, parameters related to protein dimerization were estimated. In some embodiments, the apparent dissociation constant Kd of FKBP homodimerization domain may depend on AP1903 concentrations. […] Based on this observation, it was reasoned that in media containing 100 nM AP1903, the apparent dissociation constant Kd≤10 nM. An estimate of Kd=10 nM=8000 molecules/cell was used in the model. For monomer association rate kon, an intermediate value in the range of diffusion-limited association rates of kon=4×10^5/(M·s)=1.8×10^−3 cell/(protein·hr) was used. These two values together produce a dimer dissociation rate koff=Kd×kon=[…].

Test [3] deals with reporter containing 18 bp homodimer binding sites driving the expression of Citrine. Put plainly: Transient co-transfection Citrine reporter assay of ZF transcription factors. Format: cell-based, Chinese hamster. The text has this:
To engineer ZF transcription factors, the ErbB2 ZF DNA-binding domain was fused to a GCN4 homodimerization domain and a VP48 transcriptional activation domain to create the synthetic transcription factor, termed ZF-GCN4-AD (FIG. 2A). A transcription factor (ZF-AD) lacking GCN4 was used as a monomeric control. To assay their transcriptional activity, a reporter was constructed containing 18 bp homodimer binding sites driving the expression of Citrine. Each transcription factor was then co-transfected together with the reporter and an mTagBFP2 co-transfection marker into Chinese hamster ovary K1 (CHO-K1) cells, and analyzed for Citrine expression by flow cytometry 36 hours later (FIG. 2A and FIG. 9A) (See, “Additional Methods” below). […] Arginine-to-alanine mutations were introduced at key positions in the ZF known to weaken DNA binding, which decreased monomeric activity without reducing homodimer activity (FIG. 2A, red square). […]
All tissue culture experiments were performed with Chinese hamster ovary K1 cells (CHO-K1, ATCC). […] Cells were harvested after 36 hours and cell fluorescence was measured by flow cytometry. […] After another 72 hours, cells were harvested and analyzed by flow cytometry. […] The inhibition strength was quantified as the reduction of self-activation cell fractions. […]

The test system of test [4] is self-activation construct in Tet3G-expressing CHO-K1 cells. Put plainly: ZF transcription factor self-activation assay (normalized mCitrine+ fraction). The class given is cell-based, Chinese hamster. To be noted: 24 hours Dox, then Dox withdrawn; 72 hours in AP1903 and/or TMP.
Description: To validate this capability, a self-activation construct was designed (FIG. 2C), in which a transcription factor with a FKBP dimerization domain is expressed from a promoter containing its own 18 bp homodimer binding sites (Table 2). This construct allowed independent Dox-inducible activation through upstream Tet3G (Takara Bio) binding sites. […] Finally, a destabilized mCitrine was incorporated for dynamic readout of construct expression. This construct was integrated into Tet3G-expressing CHO-K1 cells, generating a stable polyclonal population for further analysis (Table 3) (See, “Additional Methods” below).
For experiments characterizing ZF transcription factor self-activation (FIG. 2C and FIG. 10A), each self-activation construct was stably integrated (Table 2) into polyclonal Tet3G-expressing CHO-K1 cells via PiggyBac (Systems Biosciences) to make a polyclonal cell line (Table 3). […] After another 72 hours, cells were harvested and analyzed by flow cytometry.
Each self-activation construct (Table 2, construct MF63-MF69) was stably integrated into Tet3G-expressing CHO-K1 cells. […] After another 72 hours, cells were harvested and analyzed by flow cytometry. […]
The subject of a further test is MultiFate-2.3 cells. Put plainly: Flow cytometry analysis of MultiFate-2.3 state-switching. The class given is cell-based, Chinese hamster. An excerpt: FIG. 21A-FIG. 21C depict non-limiting exemplary data related to raw flow cytometry analysis of MultiFate-2.3 state-switching. Each plot represents one of three biological replicates at the indicated time point (cf. FIG. 4B). Initial A-only, B-only and A+B cells (rows) were sorted under the media conditions indicated on the top. Each 2-dimensional flow cytometry plot was divided at mCherry=104 and mCitrine=104 into four quadrants, representing four states. For each plot, the percentage of cells in each of the four states is labeled on the corresponding corner. Timelines above each set of plots represent the time and indicated inducer conditions. Note that since the response elements for 4-OHT or Dox are adjacent to the transcription factor homodimer binding sites (Table 2), the addition of 4-OHT or Dox increases A or B expression up to, but not substantially beyond, the level produced by transcription factor self-activation. […] Additional Dox activation further increased the B expression only by another 1.4 fold (Day 6 versus Day 18).
Finally, it was asked to what extent cells could be deliberately switched from one state to another through transient perturbations. MultiFate-2.3, in which the A and B genes can be independently activated by 4-hydroxy-tamoxifen (4-OHT) and Dox, respectively, was used to address this question. In this cell-line, the response elements for the inducers are adjacent to the homodimer binding sites. Therefore, the addition of inducers increases A or B expression up to, but not substantially beyond, the level produced by self-activation (FIG. 2C and FIG. 21A-FIG. 21C). In the bistable regime, transient induction of either transcription factor switched cells into the corresponding state, where they remained in the absence of further induction (FIG. 8A, FIG. 4B, left, and FIG. 21A). […]
For flow cytometry experiments characterizing state stability (FIG. 3C and FIG. 5B) and state-switching dynamics (FIG. 4A-FIG. 4B), cells from each state were sorted into media containing corresponding inducers. […] The remaining 96% cells were suspended in the flow cytometry buffer and analyzed by flow cytometry. […]
To characterize long-term state stability of MultiFate cells in different media conditions (FIG. 3A-FIG. 5D), 4% of cells were trypsinized and transferred into fresh media with the same condition every three days. The remaining cells were resuspended in flow cytometry buffer and analyzed by a flow cytometer. The resulting two-dimensional (or three-dimensional for MultiFate-3) fluorescence intensity plots were then divided into four quadrants (or eight octants) by an empirical threshold in each of the two (or three) fluorescence channels. […]

Test [5] deals with homodimerization domain. The conditions noted are these: cited from earlier work.

The values that follow come from patent US20220177911A1, “SYNTHETIC CIRCUIT FOR CELLULAR MULTISTABILITY” (California Institute of Technology, priority 2020, published 2022).

T1 sequence (P62942 2-108 F37V): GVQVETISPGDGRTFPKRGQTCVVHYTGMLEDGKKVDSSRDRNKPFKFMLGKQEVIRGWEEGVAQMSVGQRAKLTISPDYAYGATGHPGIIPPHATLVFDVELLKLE

In the case of “FKBP: FKBP12F36V homodimerization domain (SEQ ID NO: 5)”, in test [1] (FKBP-42ZFR2AR39AR67A-VP48-DHFR self-activation cells), the inhibition of self-activation entry is on record as “can partially inhibit self-activation”. In the test with homodimerization domain [2], the Kd is no more than 10 nM.

`CC[C@H](C(=O)N1CCCC[C@H]1C(=O)O[C@H](CCc1ccc(OC)c(OC)c1)c1cccc(OCC(=O)NCCNC(=O)COc2cccc([C@@H](CCc3ccc(OC)c(OC)c3)OC(=O)[C@@H]3CCCCN3C(=O)[C@@H](CC)c3cc(OC)c(OC)c(OC)c3)c2)c1)c1cc(OC)c(OC)c(OC)c1` [AP1903]: the “control of ZF transcription factor dimerization/activation by dimerization ligand” value in test [3] (FKBP12F36V (FKBP) homodimerization domain instead of GCN4, BCRZFR39A) is “dose-dependent control of dimerization”. Also, the “self-activation after Dox withdrawal (mCitrine distribution)” value in test [4] is listed as “bimodal distribution of mCitrine fluorescence”.

Consider 4-hydroxy-tamoxifen [4-OHT], for which the “additional increase in A expression by inducer compared with self-activation (Day 6 versus Day 18)” value in the test with MultiFate-2.3 cells (4-OHT 25 nM) is 2.8 fold.

Consider `C[C@H]1c2cccc(O)c2C(=O)C2=C(O)[C@]3(O)C(=O)C(C(N)=O)=C(O)[C@@H](N(C)C)[C@@H]3[C@@H](O)[C@@H]21` [Dox], for which the “additional increase in B expression by inducer compared with self-activation (Day 6 versus Day 18)” value with MultiFate-2.3 cells (Dox 500 ng/ml) is 1.4 fold.

With GCN4: GCN4 homodimerization domain, the inhibition of self-activation result in test [1] (42ZFR2AR39AR67A-GCN4-VP48-DHFR self-activation cells) is “did not have inhibitory effects”. Moreover, the Kd on homodimerization domain [5] was 10 to 20 nM.

As for “NLS-FKBP12F36V-37ZFR2AR11AR39AR67A-VP16-NLS-DHFR [transcription factor B]”, the “increase in B expression by transcription factor self-activation (Day 18 versus Day 0)” value in the test with MultiFate-2.3 cells amounted to 48 fold.

Take `COc1cc(Cc2cnc(N)nc2N)cc(OC)c1OC` [TMP, trimethoprim]: the “self-activation after Dox withdrawal (mCitrine distribution)” value in test [4] is given as “promoted self-activation in a dose-dependent manner”.

Take “ZF-GCN4-AD: ErbB2 ZF DNA-binding domain fused to GCN4 homodimerization domain and VP48 activation domain”: the “reporter activation by ZF transcription factor” value in test [3] (ErbB2 ZF, VP48 activation domain, wild-type (WT) ZF, flow cytometry 36 hours after transfection) is recorded as “strongly activated the reporter”.

“NLS-FKBP12F36V-BCRZFR39A-VP16-NLS-DHFR [transcription factor A]”: in the test with MultiFate-2.3 cells (mean of three replicates), the “increase in A expression by transcription factor self-activation (mCherry median Day 18 / Day 0)” value is listed as 125 fold.
